Test results published in patent US7022520B2, “Cell culture media for mammalian cells” (University of Pittsburgh, priority 1996, dated 2006).

How the values were obtained:
[1] = system: hepatocytes; assay: Hepatocytes between two type I collagen gel layers in HBM: ductular/acinar structures and proliferation; assay type: cell-based, rat; conditions: for phenotype of hepatocytes between two collagen gel layers: HBM supplemented with the growth factor, 15 day cultures
Protocol: (§1) Collagen gels were prepared as described by Michalopoulos, G. K., et al., Exp. Cell. Res. 94:70 (1975), the disclosure of which is incorporated herein by reference. Dry coating of plates with collagen and Matrigel was also performed as specified by the manufacturer. Matrigel gels were made by adding 50 μl of Matrigel solution into 0.5 ml of medium directly on the top of attached cells.
Hepatocytes maintained between two collagen gel layers retain their morphology and differentiation for prolonged time periods as described by Michalopoulos, G. K., et al., J. Cell. Physiol. 156:443 (1993), the disclosure of which is incorporated herein by reference. Hepatocytes maintained in collagen gel sandwiches in cultures with convential media containing HGF/SF undergo intense proliferation, form prominent projections, and eventually become organized in structures reminiscent of the hepatic plates. The behavior of hepatocytes maintained between two layers of collagen gel as previously described was examined, but in the presence of HBM supplemented with either HGF/SF or EGF as described above. […] These became prominent and encompassed most of the cells present in the cultures. Starting from approximately day 10 and by day 15 most of the cells in the culture were arranged in such ductular structures. Histologic sections are shown in FIG. 7B (light microscopy) and FIGS. 7C and 7D (electron microscopy). […] Some of the cells surrounding these structures were very attenuated and had light and electron microscopic appearance identical to bile duct epithelium. Others however are larger and resemble more closely the ductular hepatocytes described in previous studies of in vivo models. The proliferation of cells (data not shown) under either EGF or HGF/SF in the collagen gel sandwiches was much less (<25% at the highest peak) than that seen in the cultures on plastic coated with dry collagen. Most proliferation ceased by day 10 and the duct-like structures appeared after cell proliferation had ceased (days 10–15). […]

[2] = system: rat hepatocytes; assay: Hepatocyte proliferation in HBM supplemented with growth factors (total DNA per culture, thymidine uptake, BRdU labeling); assay type: cell-based; conditions: FIG. 2; for cell proliferation, total amount of DNA per culture at day 15: growth factor added individually to HBM medium
From the text: Rat hepatocytes were isolated by an adaptation of the calcium two step collagenase perfusion technique as taught by Kost, D. P., et al, J. Cell. Physiol. 147:274 (1991), the disclosure of which is incorporated herein by reference. All such preparations were designed to obtain a population of pure hepatocytes. […] After isolation of hepatocytes, the cells were suspended in a media used for cell attachment to the culture plates. This media was MEM (GIBCO 12570) with NEAA (GIBCO 11140), insulin 5 mg/L, and gentamycin 5 μg/ml. Hepatocytes were plated on a single layer of collagen coating as described below and left to attach for 2 hours. Six-well cluster plates (9.8 square centimeters […]) from Corning were used. For experiments where hepatocytes were not going to be induced to proliferate, or where assessments of differentiated function were performed, the cells were plated at a density of 80,000 hepatocytes per square centimeter of surface area. For experiments intended to induce proliferation or genetic transduction with foreign DNA, cells were plated at an initial density of 1,000 or 10,000 hepatocytes per square centimeter of surface area. The plating medium was replaced with the invention HBM medium at 2 hours after the cells were plated and every 48 hours thereafter. Thymidine, growth factors, and other ingredients, were added at the time of medium change as required.
(§2) DNA synthesis was measured by the uptake of tritiated thymidine into trichloroacetic acid (TCA) precipitable material as described by Kost, D. P., et al. (1991), cited above. Collagen gels, where necessary, were digested with 2 mg of collagenase per ml of MEM medium used. Incubation was then carried out for 30 minutes at 37° C. The digested gels were treated with NaOH followed by TCA to precipitate DNA, RNA, and proteins as described by Kost, D. P., et al. (1991), cited above.
FIGS. 1A and 1B show the uptake of thymidine per μg DNA, as well as the BRdU nuclear labeling index at different days in culture in cells growing in the presence of HGF/SF and EGF (40, 20 ng/ml respectively) as described above. […] By day 15 the cultures were confluent and DNA synthesis slowed down.
The growth factors HGF/SF, EGF, TGFα, KGF (keratinocyte growth factor), SCF (stem cell factor), and aFGF (acidic fibroblast growth factor) were added individually to HBM medium. […] The total DNA per culture is shown as a function of the time in culture. […] The DNA per culture at day 15 was 12 times that at time 0, reflecting the increase in cell number. […] TGFα alone was more mitogenic than either HGF/SF or EGF alone.

[3] = system: cytochrome P450 IIB1 mRNA; assay: Northern blot of cytochrome IIB1 mRNA induction; conditions: PB added at day 10 of culture, harvest at day 15; with or without Matrigel at day 8; FIG. 6E
Protocol: Extraction of Total RNA and mRNA from Cultures. Total RNA was extracted from unwashed cell cultures using 2.0 ml of RNAzol B (BioTec) per well and purified per the manufacturer's guidelines. RNA concentration and purity were determined by routine spectrophotometry. Size separation of 20 μg RNA per lane was completed on denaturing it agarose gels and transferred to nylon membranes (Amersham, Arlington Heights, Ill.) by the capillary method. After cross-linking under UV light, the membranes were hybridized overnight with specific cDNAs (as indicated in the figures) that had been labeled with [α-^32P]dCTP using an Amersham random primer kit. Membranes were subsequently washed under high stringency conditions and exposed to XAR film (Eastman Kodak, Rochester, N.Y.) for 1–3 days. Quantification of the RNA hybridization bands were performed by laser densitometry.
The effect of Phenobarbitol (PB) on the levels of cytochrome P450 IIB1 mRNA in the Matrigel-treated cultures was also measured as shown in FIG. 6E. Matrigel was added to the cultures at day 8. PB was added 2 days later (day 10 of culture). The cells were harvested 5 days after addition of PB (day 15 in culture).

[4] = system: rat hepatocytes; assay: Effect of matrix substrates on hepatocyte growth (total DNA per culture at day 15); assay type: cell-based; conditions: dry coating of plates; HBM with HGF/SF 40 ng/ml and EGF 20 ng/ml; FIG. 3
Protocol: as §1
Several matrix substrates promoted cell growth in this system. […] The cells were cultured as described above. […] Coating with type I collagen (Vitrogen commercial preparation) was the standard method used for the experiments unless otherwise specified. The effect of matrix gels in promoting specific phenotypic conversions in these cultures is further discussed below.

[5] = system: proliferating hepatocytes; assay: DNA synthesis in hepatocyte cultures (tritiated thymidine uptake); assay type: cell-based, rat; conditions: for DNA synthesis: 20 mM, 5-day period
Protocol: as §2
To assess whether differentiation to mature hepatocyte morphology required DNA synthesis, 20 mM hydroxurea was added to the HBM media. This has been shown (Michalopoulos, G. K., et al., Cancer Res. 38:1866 (1978), the disclosure of which is incorporated herein by reference) to abolish scheduled semiconservative DNA synthesis in hepatocytes by inhibiting ribonucleotide reductase. Hydroxyurea was added to cultures before the Madrigel overlay and maintained throughout the next 5-day period.
Hepatocytes maintained between two collagen gel layers retain their morphology and differentiation for prolonged time periods as described by Michalopoulos, G. K., et al., J. Cell. Physiol. 156:443 (1993), the disclosure of which is incorporated herein by reference. Hepatocytes maintained in collagen gel sandwiches in cultures with convential media containing HGF/SF undergo intense proliferation, form prominent projections, and eventually become organized in structures reminiscent of the hepatic plates. The behavior of hepatocytes maintained between two layers of collagen gel as previously described was examined, but in the presence of HBM supplemented with either HGF/SF or EGF as described above. […] These became prominent and encompassed most of the cells present in the cultures. Starting from approximately day 10 and by day 15 most of the cells in the culture were arranged in such ductular structures. Histologic sections are shown in FIG. 7B (light microscopy) and FIGS. 7C and 7D (electron microscopy). […]

[6] = system: proliferating hepatocytes; assay: Matrigel overlay: reversion of proliferating hepatocytes to mature hepatocyte morphology; assay type: cell-based, rat; conditions: Matrigel overlay with 20 mM hydroxyurea
Protocol: To assess whether differentiation to mature hepatocyte morphology required DNA synthesis, 20 mM hydroxurea was added to the HBM media. […] Hydroxyurea was added to cultures before the Madrigel overlay and maintained throughout the next 5-day period.

**Q.** Which results are given for “HGF/SF: Hepatocyte growth factor, also known as scatter factor”?
**A.** phenotype of hepatocytes between two collagen gel layers [1]: multiple duct-shaped structures; cell proliferation, total amount of DNA per culture at day 15 [2]: significant cell proliferation

**Q.** How did the “levels of cytochrome P450 IIB1 mRNA” value [3] turn out when `CCC1(c2ccccc2)C(=O)NC(=O)NC1=O` [PB, Phenobarbitol] was run?
**A.** The value was “induced cytochrome IIB1 mRNA only in the Matrigel-treated cultures”.

**Q.** With SCF: stem cell factor as the molecule, how does the “cell proliferation, total amount of DNA per culture at day 15” value (shortened to “cell proliferation … per culture at day 15”) [2] read?
**A.** Its value is “no proliferative effect”.

**Q.** EGF: epidermal growth factor was tested. Which “phenotype of hepatocytes between two collagen gel layers” value [1] did it give?
**A.** Its value is “underwent the typical phenotypic transitions”.

**Q.** And the “cell proliferation … per culture at day 15” value [2]?
**A.** Its value is “significant cell proliferation”.

**Q.** With aFGF: acidic fibroblast growth factor as the molecule, how does the “cell proliferation … per culture at day 15” value [2] read?
**A.** Its value is “no proliferative effect”.

**Q.** How did the “promotion of cell growth, total DNA per culture at day 15” value (from here on “promotion … per culture at day 15”) [4] turn out when “type I (bovine): bovine skin collagen type I, dry coating matrix substrate” was run?
**A.** The value was “equally effective in promoting cell growth”.

**Q.** How did the “promotion … per culture at day 15” value [4] turn out when fibronectin was run?
**A.** Its value is “equally effective in promoting cell growth”.

**Q.** For TGFα: transforming growth factor a, which “proliferative effect compared with the other mitogens” value ([2]; HBM medium, 15 days) is on record?
**A.** Its value is “stronger proliferative effect than any of the other mitogens when added alone”.

**Q.** What about the “cell proliferation … per culture at day 15” value [2] of the same molecule?
**A.** The value was “significant cell proliferation”.

**Q.** For laminin, which “promotion … per culture at day 15” value [4] is on record?
**A.** The value was “equally effective in promoting cell growth”.

**Q.** What does the source list for `NC(=O)NO` [Hydroxyurea]?
**A.** formation of the ductular structures under inhibition of DNA synthesis ([1]; collagen gel sandwich, data not shown): did not affect the formation of the ductular structures; DNA synthesis ([5]; cultures in the presence of Matrigel): 6.27 % of control (without hydroxyurea); DNA synthesis ([5]; proliferating cultures in the absence of Matrigel): 3.93 % of the control (without hydroxyurea); DNA synthesis (inhibition down to) ([5]; collagen gel sandwich cultures, data not shown): 5.1 % of control; conversion of the proliferating hepatocytes to mature hepatocyte morphology [6]: entirely unaffected

B1: KGF: keratinocyte growth factor (protein, UniProt P21781 32-194, looked up)
Fibroblast growth factor 7: CNDMTPEQMATNVNCSSPERHTRSYDYMEGGDIRVRRLFCRTQWYLRIDKRGKVKGTQEMKNNYNIMEIRTVAVGIVAIKGVESEFYLAMNKEGKLYAKKECNEDCNFKELILENHYNTYASAKWTHNGGEMFVALNQKGIPVRGKKTKKEQKTAHFLPMAIT
**Q.** With B1 as the molecule, how does the “cell proliferation … per culture at day 15” value [2] read?
**A.** Its value is “no proliferative effect”.
